Target: T1, Recombinant human cathepsin A (Homo sapiens, UniProt P10619)
T1 construct: Recombinant human cathepsin A (residues 29-480, with a C-terminal 10-His tag); 10-His (C); purchased R&D Systems 1049-SE
T1 sequence (P10619 29-312 limits assumed): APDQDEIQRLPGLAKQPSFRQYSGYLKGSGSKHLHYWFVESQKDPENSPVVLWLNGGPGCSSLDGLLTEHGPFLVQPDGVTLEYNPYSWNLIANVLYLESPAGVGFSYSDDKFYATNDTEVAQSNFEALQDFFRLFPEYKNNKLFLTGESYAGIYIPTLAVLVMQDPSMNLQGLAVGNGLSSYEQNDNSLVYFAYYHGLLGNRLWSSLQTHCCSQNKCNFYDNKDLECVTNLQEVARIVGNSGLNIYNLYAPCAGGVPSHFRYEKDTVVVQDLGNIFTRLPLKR
T1 sequence (P10619 327-480 limits assumed): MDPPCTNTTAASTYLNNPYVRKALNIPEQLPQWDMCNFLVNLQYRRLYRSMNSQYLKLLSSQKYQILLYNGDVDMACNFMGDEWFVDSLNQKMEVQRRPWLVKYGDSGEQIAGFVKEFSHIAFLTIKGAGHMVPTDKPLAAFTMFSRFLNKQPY
Experiment: Cathepsin A inhibitory activity
Type: biochemical
Details: pharmacological test "Cathepsin A inhibitory activity"; IC50 given as class A/B/C; read-out: Activity (2): Cathepsin A inhibitory activity, IC50 class
Outline: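 Human cathepsin A (res. 29-480, C-His10) pre-activated with cathepsin L (MES pH 6.0, DTT, 15 min, 37 °C; quenched with 10 μM E-64). Enzyme (833 ng/ml) preincubated 15 min RT with compound in MES pH 5.5/DTT, then 2 μM Bodipy FL-bradykinin for 15 min RT. Capillary electrophoresis product/substrate peak areas; IC50 from % inhibition.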

Row | Structure (SMILES) | IC50 [µM]
1 | COc1ccccc1[C@@H](NC(=O)c1cc(O)n(-c2ccccc2)n1)[C@@H](O)C(=O)O [Example 169] | 1 to 30
2 | COc1cccc([C@H](CC(=O)O)NC(=O)c2cc(O)n(-c3ccccc3Cl)n2)c1 [Example 213] | 0.1 to 1
3 | O=C(O)C[C@H](NC(=O)c1cc(O)n(-c2cccc(Cl)c2)n1)c1cccnc1 [Example 268] | 1 to 30
4 | O=C(O)CC(NC(=O)c1cc(O)n(-c2ccccc2)n1)c1cccc2c1OCO2 (stereo not shown) [Example 158] | 0.1 to 1
5 | O=C(O)CC(NC(=O)c1cc(O)n(-c2ccccc2)n1)c1ccc(-c2cccc(F)c2)cc1 (stereo not shown) [Example 171] | 0.1 to 1
6 | O=C(O)C[C@H](NC(=O)c1cc(O)n(-c2ccccc2)n1)c1ccccc1Br [Example 159] | 0.1 to 1
7 | Cc1cccc([C@H](CC(=O)O)NC(=O)c2cc(O)n(-c3cccc(Cl)c3)n2)c1 [Example 258] | 0.1 to 1
8 | O=C(O)C[C@H](NC(=O)c1cc(O)n(-c2ccccc2Cl)n1)c1cccc(C(F)(F)F)c1 [Example 218] | 0.1 to 1
9 | COc1ccccc1[C@@H](NC(=O)c1cc(O)n(-c2ccccc2F)n1)[C@@H](O)C(=O)O [Example 240] | 1 to 30
10 | O=C(O)C[C@H](NC(=O)c1cc(O)n(-c2ccccc2F)n1)c1ccc(F)cc1 [Example 236] | 0.1 to 1

Same assay, conditions: read-out: Activity (2): Cathepsin A inhibitory activity (IC50 class)

Row | Structure (SMILES) | IC50 [µM]
11 | COc1cc(C(=O)NC(CC(=O)O)c2ccc(C)cc2C)nn1-c1ccccc1F (stereo not shown) [Example 666] | < 0.1
12 | COc1cc(C(=O)N[C@@H](CC(=O)O)c2ccccc2C)nn1C(C)(C)C [Example 611] | 0.1 to 1
13 | COc1ccc(F)c(C(CC(=O)O)NC(=O)c2cc(O)n(-c3ccccc3F)n2)c1 (stereo not shown) [Example 553, 3-(2-Fluoro-5-methoxy-phenyl)-3-{[1-(2-fluoro-phenyl)-5-hydroxy-1H-pyrazole-3-carbonyl]-amino}-propionic acid] | 0.1 to 1
14 | COc1cc(-c2ccccc2)ccc1C(CC(=O)O)NC(=O)c1cc(O)n(-c2ccccc2Cl)n1 (stereo not shown) [Example 558, 3-{[1-(2-Chloro-phenyl)-5-hydroxy-1H-pyrazole-3-carbonyl]-amino}-3-(3-methoxy-biphenyl-4-yl)-propionic acid] | 0.1 to 1
15 | O=C(O)CC(NC(=O)c1cc(O)n(-c2cccc(Cl)c2F)n1)c1ccc(-c2ccc(F)cc2)cc1 (stereo not shown) [Example 590] | 0.1 to 1
16 | CC(C)C(C)(O)COc1cc(C(=O)N[C@@H](CC(=O)O)c2cccc(Cl)c2)nn1-c1ccccc1F (stereo partly drawn) [Example 785, (S)-3-(3-Chloro-phenyl)-3-{[1-(2-fluoro-phenyl)-5-(2-hydroxy-2,3-dimethyl-butoxy)-1H-pyrazole-3-carbonyl]-amino}-propionic acid] | < 0.1
17 | COc1ccc(F)c(C(CC(=O)O)NC(=O)c2cc(O)n(-c3ccccc3)n2)c1 (stereo not shown) [Example 547, 3-(2-Fluoro-5-methoxy-phenyl)-3-[(5-hydroxy-1-phenyl-1H-pyrazole-3-carbonyl)-amino]-propionic acid] | 1 to 30
18 | Cc1ccccc1[C@H](CC(=O)O)NC(=O)c1cc(OCC(=O)N(C)C)n(-c2ccccc2F)n1 [Example 615] | < 0.1
19 | CCOc1cc(C(=O)N[C@@H](CC(=O)O)c2cccc(Cl)c2Cl)nn1-c1ccccc1F [Example 722] | < 0.1
20 | Cc1ccccc1[C@H](CC(=O)O)NC(=O)c1cc(OCc2ccccc2C(F)(F)F)n(-c2ccccc2F)n1 [Example 623] | 0.1 to 1
21 | NS(=O)(=O)c1cccc(-n2nc(C(=O)NC(CC(=O)O)c3ccc(-c4ccc(F)cc4)cc3)cc2O)c1 (stereo not shown) [Example 606] | 0.1 to 1
22 | Cc1ccccc1[C@H](CC(=O)O)NC(=O)c1cc(OCC(=O)C(C)(C)C)n(-c2ccccc2F)n1 [Example 700, (S)-3-{[5-(3,3-Dimethyl-2-oxo-butoxy)-1-(2-fluoro-phenyl)-1H-pyrazole-3-carbonyl]-amino}-3-o-tolyl-propionic acid] | < 0.1
23 | CS(=O)(=O)c1ccc(C(CC(=O)O)NC(=O)c2cc(O)n(-c3ccccc3)n2)cc1 (stereo not shown) [Example 600] | 1 to 30
24 | O=C(O)CC(NC(=O)c1cc(O)n(-c2ccccc2Cl)n1)c1ccc(N2CCCC2)cc1 (stereo not shown) [Example 568, 3-{[1-(2-Chloro-phenyl)-5-hydroxy-1H-pyrazole-3-carbonyl]-amino}-3-(4-pyrrolidin-1-yl-phenyl)-propionic acid] | 1 to 30
25 | CCOc1cc(C(=O)N[C@@H](CC(=O)O)c2cccc(Cl)c2Cl)nn1-c1ccccc1Cl [Example 742] | < 0.1

Same assay, conditions: read-out: Activity (2): Cathepsin A inhibitory activity, IC50 class

Row | Structure (SMILES) | IC50 [µM]
26 | O=C(O)CC(NC(=O)c1cc(O)n(-c2cccc(F)c2)n1)c1ccc(Cl)cc1F (stereo not shown) [Example 320] | 0.1 to 1
27 | O=C(O)CC(NC(=O)c1cc(O)n(-c2cccc(F)c2)n1)c1cccc(C(F)(F)F)c1 (stereo not shown) [Example 304] | 0.1 to 1
28 | Cc1cccc([C@H](CC(=O)O)NC(=O)c2cc(OCC(=O)C(C)(C)C)n(-c3ccccc3F)n2)c1 [Example 805, (S)-3-{[5-(3,3-Dimethyl-2-oxo-butoxy)-1-(2-fluoro-phenyl)-1H-pyrazole-3-carbonyl]-amino}-3-m-tolyl-propionic acid] | < 0.1
29 | CC(C)C(C)(O)COc1cc(C(=O)N[C@@H](CC(=O)O)c2c(F)cccc2F)nn1-c1ccccc1F (stereo partly drawn) [Example 808, (S)-3-(2,6-Difluoro-phenyl)-3-{[1-(2-fluoro-phenyl)-5-(2-hydroxy-2,3-dimethyl-butoxy)-1H-pyrazole-3-carbonyl]-amino}-propionic acid] | < 0.1
30 | COc1ccc(Cl)cc1C(CC(=O)O)NC(=O)c1cc(O)n(-c2cccc(F)c2)n1 (stereo not shown) [Example 309] | 0.1 to 1
31 | O=C(O)CC(NC(=O)c1cc(O)n(-c2ccccc2F)n1)c1cccc(Cl)c1Cl (stereo not shown) [Example 402] | < 0.1
32 | COc1ccc(C(CC(=O)O)NC(=O)c2cc(O)n(-c3cccc(F)c3)n2)c(OC)c1 (stereo not shown) [Example 306] | 0.1 to 1
33 | Cc1ccc([C@H](CC(=O)O)NC(=O)c2cc(O)n(-c3ccccc3Cl)n2)cc1 [Example 135, (S)-3-{[1-(2-Chloro-phenyl)-5-hydroxy-1H-pyrazole-3-carbonyl]-amino}-3-p-tolyl-propionic acid] | 0.1 to 1
34 | O=C(O)CC(NC(=O)c1cc(O)n(-c2ccc(Cl)cc2)n1)c1cccc(Oc2ccc(Cl)cc2)c1 (stereo not shown) [Example 290] | 1 to 30
35 | CC(C)[C@](C)(O)COc1cc(C(=O)N[C@@H](CC(=O)O)c2c(F)cccc2F)nn1-c1ccccc1F [Example 817, (S)-3-(2,6-Difluoro-phenyl)-3-{[1-(2-fluoro-phenyl)-5-((S)-2-hydroxy-2,3-dimethyl-butoxy)-1H-pyrazole-3-carbonyl]-amino}-propionic acid] | < 0.1
36 | O=C(O)C[C@H](NC(=O)c1cc(O)n(-c2ccc(F)cc2)n1)c1c(F)cccc1F [Example 368] | 0.1 to 1
37 | O=C(O)CC(NC(=O)c1cc(O)n(-c2ccccc2)n1)c1ccc(OC(F)(F)F)cc1 (stereo not shown) [Example 12] | 0.1 to 1
38 | O=C(O)CC(NC(=O)c1cc(O)n(-c2ccc(F)cc2)n1)c1ccc(Cl)cc1F (stereo not shown) [Example 357] | 0.1 to 1
39 | COc1cc(C(=O)N[C@@H](CC(=O)O)c2ccccc2C)nn1-c1ccccc1F [Example 129, (S)-3-{[1-(2-Fluoro-phenyl)-5-methoxy-1H-pyrazole-3-carbonyl]-amino}-3-o-tolyl-propionic acid] | < 0.1
40 | O=C(O)CC(NC(=O)c1cc(O)n(-c2ccc(F)cc2)n1)c1cccc(Cl)c1F (stereo not shown) [Example 361] | 0.1 to 1
41 | O=C(O)C[C@H](NC(=O)c1cc(O)n(-c2cccc(F)c2)n1)c1ccccc1Br [Example 302] | 0.1 to 1
42 | CC(C)[C@@](C)(O)COc1cc(C(=O)NC(CC(=O)O)Cc2ccccc2)nn1-c1ccccc1F (stereo partly drawn) [Example 821, 3-{[1-(2-Fluoro-phenyl)-5-((R)-2-hydroxy-2,3-dimethyl-butoxy)-1H-pyrazole-3-carbonyl]-amino}-4-phenyl-butyric acid] | < 0.1
43 | O=C(O)C[C@H](NC(=O)c1cc(O)n(-c2cccc(F)c2)n1)c1ccccc1C(F)(F)F [Example 329] | 0.1 to 1
44 | CCc1ccc(C(CC(=O)O)NC(=O)c2cc(O)n(-c3ccccc3F)n2)cc1 (stereo not shown) [Example 134] | 0.1 to 1
45 | COc1ccccc1[C@H](CC(=O)O)NC(=O)c1cc(O)n(-c2ccccc2Cl)n1 [Example 111] | 0.1 to 1
46 | O=C(O)C[C@H](NC(=O)c1cc(O)n(-c2ccccc2)n1)c1cccnc1 [Example 137] | 0.1 to 1

Same assay, conditions: recombinant human cathepsin A 833 ng/ml, Bodipy FL-labeled bradykinin 2 μM, pH 5.5; read-out: CATH-A IC50

Row | Structure (SMILES) | IC50 [µM]
47 | Cc1ccc([C@H](CC(=O)O)NC(=O)c2cc(O)n(-c3ccccc3Cl)n2)cc1 [Example 135, (S)-3-{[1-(2-Chloro-phenyl)-5-hydroxy-1H-pyrazole-3-carbonyl]-amino}-3-p-tolyl-propionic acid] | 0.211
48 | COc1ccc(F)c(C(CC(=O)O)NC(=O)c2cc(O)n(-c3ccccc3F)n2)c1 (stereo not shown) [Example 553, 3-(2-Fluoro-5-methoxy-phenyl)-3-{[1-(2-fluoro-phenyl)-5-hydroxy-1H-pyrazole-3-carbonyl]-amino}-propionic acid] | 0.732
49 | COc1cc(-c2ccccc2)ccc1C(CC(=O)O)NC(=O)c1cc(O)n(-c2ccccc2Cl)n1 (stereo not shown) [Example 558, 3-{[1-(2-Chloro-phenyl)-5-hydroxy-1H-pyrazole-3-carbonyl]-amino}-3-(3-methoxy-biphenyl-4-yl)-propionic acid] | 0.699
50 | COc1cc(C(=O)N[C@@H](CC(=O)O)c2ccccc2C)nn1-c1ccccc1F [Example 129, (S)-3-{[1-(2-Fluoro-phenyl)-5-methoxy-1H-pyrazole-3-carbonyl]-amino}-3-o-tolyl-propionic acid] | 0.0412
51 | COc1ccc(F)c(C(CC(=O)O)NC(=O)c2cc(O)n(-c3ccccc3)n2)c1 (stereo not shown) [Example 547, 3-(2-Fluoro-5-methoxy-phenyl)-3-[(5-hydroxy-1-phenyl-1H-pyrazole-3-carbonyl)-amino]-propionic acid] | 1.39
52 | O=C(O)CC(NC(=O)c1cc(O)n(-c2ccccc2Cl)n1)c1ccc(N2CCCC2)cc1 (stereo not shown) [Example 568, 3-{[1-(2-Chloro-phenyl)-5-hydroxy-1H-pyrazole-3-carbonyl]-amino}-3-(4-pyrrolidin-1-yl-phenyl)-propionic acid] | 2.35

Same assay, conditions: recombinant human cathepsin A; read-out: Activity (2): Cathepsin A inhibitory activity, IC50 class

Row | Structure (SMILES) | IC50 [µM]
53 | O=C(O)CC(NC(=O)c1cc(O)n(-c2ccccc2F)n1)c1ccc(N2CCOCC2)cc1 (stereo not shown) [Example 518] | 1 to 30
54 | COc1cc(C(=O)N[C@@H](CC(=O)NCC#N)c2ccccc2C)nn1-c1ccccc1F [Example 926, 1-(2-Fluoro-phenyl)-5-methoxy-1H-pyrazole-3-carboxylic acid [(S)-2-(cyanomethyl-carbamoyl)-1-o-tolyl-ethyl]-amide] | 1 to 30
55 | O=C(O)CC(NC(=O)c1cc(O)n(-c2ccccc2F)n1)c1cc(F)ccc1C(F)(F)F (stereo not shown) [Example 477] | 0.1 to 1
